From US20080009418A1, “Selective Inhibitors” (Alchemia LTD., priority 2004, published 2008)

Assays:
Conditions in all cases: compound at 10 μM
Human δ-opioid (DOP) = biological target: T1, Human δ-opioid (DOP) (Homo sapiens, UniProt P41143); experiment: Radioligand binding, human δ-opioid (DOP) membranes, FlashPlate, [3H]-Bremazocine
T1 construct: purchased Perkin Elmer Biosignal
How it was run: (§1)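 Cloned human receptor membranes were coated onto FlashPlate wells and incubated with radioligand and compound (added from a 0.5 mM DMSO daughter plate) for 1 hour at room temperature in the dark. Scintillation counting gave percent inhibition, with DMSO defining total and reference ligand defining non-specific binding.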

Human κ-Opioid (KOP) = biological target: T2, Human κ-Opioid (KOP) (Homo sapiens, UniProt P41145); experiment: Radioligand binding, human κ-opioid (KOP) membranes, filtration, [3H]-Diprenorphine
T2 construct: purchased Perkin Elmer Biosignal
How it was run: (§2)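 Percent inhibition of radioligand binding measured on recombinant human membranes: NK1 with [125I]-Substance P, KOP with [3H]-Diprenorphine. Incubation 1 h at room temperature, then harvest onto 0.3% PEI-soaked filters, cold Tris-HCl pH 7.4 washes and scintillation counting; non-specific binding from reference ligand wells.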

Human Melanocortin (MC3) = biological target: T3, Human Melanocortin (MC3) (Homo sapiens, UniProt P41968); experiment: Radioligand binding, human melanocortin MC3 membranes, FlashPlate, [125I]-NDP-αMSH
T3 construct: purchased Perkin Elmer Biosignal
How it was run: as §1

Human Melanocortin (MC4) = biological target: T4, Human Melanocortin (MC4) (Homo sapiens, UniProt P32245); experiment: Radioligand binding, human melanocortin MC4 membranes, FlashPlate, [125I]-NDP-αMSH
T4 construct: purchased Perkin Elmer Biosignal
How it was run: as §1

Human melanocortin (MC5) = biological target: T5, Human melanocortin (MC5) (Homo sapiens, UniProt P33032); experiment: Radioligand binding, human melanocortin MC5 membranes, FlashPlate, [125I]-NDP-αMSH
T5 construct: purchased Perkin Elmer Biosignal
How it was run: as §1

[1] = biological target: T6, Human melanin-concentrating hormone (MCH1) (Homo sapiens, UniProt Q99705); experiment: Radioligand binding, human melanin-concentrating hormone MCH1 membranes, FlashPlate, [125I]-S36057
T6 construct: purchased Perkin Elmer Biosignal
How it was run: as §1

Human μ-opioid (MOP) = biological target: T7, Human μ-opioid (MOP) (Homo sapiens, UniProt P35372); experiment: Radioligand binding, human μ-opioid (MOP) membranes, FlashPlate, [3H]-Naloxone
T7 construct: purchased Perkin Elmer Biosignal
How it was run: as §1

Human neurokinin (NK1) = biological target: T8, Human neurokinin (NK1) (Homo sapiens, UniProt P25103); experiment: Radioligand binding, human neurokinin NK1 membranes, filtration, [125I]-Substance P
T8 construct: purchased Perkin Elmer Biosignal
How it was run: as §2

[2] = biological target: T9, Human neuropeptide Y (NPY-Y1) (Homo sapiens, UniProt P25929); experiment: Radioligand binding, human neuropeptide Y NPY-Y1 membranes, FlashPlate, [125I]-PYY
T9 construct: purchased Perkin Elmer Biosignal
T9 sequence (P25929 1-384): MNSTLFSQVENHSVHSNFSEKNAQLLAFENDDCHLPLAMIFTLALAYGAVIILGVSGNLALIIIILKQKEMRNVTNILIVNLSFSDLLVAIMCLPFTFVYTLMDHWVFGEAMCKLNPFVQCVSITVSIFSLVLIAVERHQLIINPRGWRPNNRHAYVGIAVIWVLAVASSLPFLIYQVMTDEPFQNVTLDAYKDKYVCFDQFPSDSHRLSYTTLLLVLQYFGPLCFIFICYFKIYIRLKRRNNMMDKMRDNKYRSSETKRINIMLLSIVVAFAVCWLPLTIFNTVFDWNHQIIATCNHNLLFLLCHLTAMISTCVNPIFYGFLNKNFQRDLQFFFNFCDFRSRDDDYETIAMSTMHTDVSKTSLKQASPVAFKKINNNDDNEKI
How it was run: as §1

Human opioid (ORL1) = biological target: T10, Human opioid (ORL1) (Homo sapiens, UniProt P41146); experiment: Radioligand binding, human opioid ORL1 membranes, FlashPlate, [125I]-Nociceptin
T10 construct: purchased Perkin Elmer Biosignal
How it was run: as §1

Mouse urotensin (mUR2) = biological target: T11, Mouse urotensin (mUR2) (Mus musculus, UniProt Q8VIH9); experiment: Radioligand binding, mouse urotensin mUR2 membranes, FlashPlate, [125I]-Urotensin II
T11 construct: purchased Perkin Elmer Biosignal
T11 sequence (Q8VIH9 1-385): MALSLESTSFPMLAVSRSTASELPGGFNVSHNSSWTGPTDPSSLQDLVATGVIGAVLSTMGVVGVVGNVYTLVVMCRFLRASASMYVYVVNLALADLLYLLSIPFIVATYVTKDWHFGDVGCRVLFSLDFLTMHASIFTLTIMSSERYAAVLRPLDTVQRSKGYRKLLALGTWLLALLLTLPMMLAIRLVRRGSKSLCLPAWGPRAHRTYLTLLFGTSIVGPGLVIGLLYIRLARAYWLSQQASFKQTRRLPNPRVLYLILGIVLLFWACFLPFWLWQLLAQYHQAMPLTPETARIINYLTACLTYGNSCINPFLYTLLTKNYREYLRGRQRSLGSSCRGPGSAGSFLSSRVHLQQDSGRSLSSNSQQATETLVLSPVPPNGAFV
How it was run: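 Cloned mouse urotensin (mUR2) receptor membranes from Perkin Elmer Biosignal were immobilized in FlashPlate microplates using a proprietary coating. Each well got 19.5 μl buffer, then 0.5 μl of DMSO, reference ligand, or compound. Adding 5 μl of [125I]-Urotensin II, diluted to 5× final concentration in binding buffer, started binding. Plates were sealed with TopSeal-A and incubated 1 hour at room temperature in the dark. Wells were counted for 30 seconds each on a TopCount after a 60-second delay, and percentage inhibition was calculated.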

T4 sequence (P32245 whole entry): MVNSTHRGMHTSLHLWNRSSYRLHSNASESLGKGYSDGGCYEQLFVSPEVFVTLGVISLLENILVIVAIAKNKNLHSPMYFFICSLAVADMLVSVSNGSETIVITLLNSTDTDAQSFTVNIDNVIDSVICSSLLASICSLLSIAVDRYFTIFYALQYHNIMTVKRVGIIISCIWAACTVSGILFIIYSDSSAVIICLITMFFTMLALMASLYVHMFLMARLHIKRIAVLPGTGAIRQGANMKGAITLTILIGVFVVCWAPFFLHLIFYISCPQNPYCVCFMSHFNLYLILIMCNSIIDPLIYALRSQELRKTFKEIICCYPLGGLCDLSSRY
T6 sequence (Q99705 whole entry): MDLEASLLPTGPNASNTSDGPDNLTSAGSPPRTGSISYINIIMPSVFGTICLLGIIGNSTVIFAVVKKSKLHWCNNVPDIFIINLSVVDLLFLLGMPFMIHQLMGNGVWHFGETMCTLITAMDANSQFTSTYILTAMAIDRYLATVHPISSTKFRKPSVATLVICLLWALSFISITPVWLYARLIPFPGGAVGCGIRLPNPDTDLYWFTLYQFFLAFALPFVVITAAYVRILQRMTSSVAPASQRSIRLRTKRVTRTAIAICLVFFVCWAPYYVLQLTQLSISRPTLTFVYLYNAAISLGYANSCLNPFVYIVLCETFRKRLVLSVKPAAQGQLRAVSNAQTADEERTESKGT
T7 sequence (P35372 whole entry): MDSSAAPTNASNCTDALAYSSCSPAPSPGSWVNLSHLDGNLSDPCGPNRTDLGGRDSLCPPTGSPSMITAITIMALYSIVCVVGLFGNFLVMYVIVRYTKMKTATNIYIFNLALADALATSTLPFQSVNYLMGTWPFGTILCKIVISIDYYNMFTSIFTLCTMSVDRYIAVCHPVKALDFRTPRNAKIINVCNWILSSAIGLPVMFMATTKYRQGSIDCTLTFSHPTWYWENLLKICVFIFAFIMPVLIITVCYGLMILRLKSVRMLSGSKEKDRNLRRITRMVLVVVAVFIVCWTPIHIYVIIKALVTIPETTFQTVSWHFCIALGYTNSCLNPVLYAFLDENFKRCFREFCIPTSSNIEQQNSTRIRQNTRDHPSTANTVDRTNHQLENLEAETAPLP
T5 sequence (P33032 whole entry): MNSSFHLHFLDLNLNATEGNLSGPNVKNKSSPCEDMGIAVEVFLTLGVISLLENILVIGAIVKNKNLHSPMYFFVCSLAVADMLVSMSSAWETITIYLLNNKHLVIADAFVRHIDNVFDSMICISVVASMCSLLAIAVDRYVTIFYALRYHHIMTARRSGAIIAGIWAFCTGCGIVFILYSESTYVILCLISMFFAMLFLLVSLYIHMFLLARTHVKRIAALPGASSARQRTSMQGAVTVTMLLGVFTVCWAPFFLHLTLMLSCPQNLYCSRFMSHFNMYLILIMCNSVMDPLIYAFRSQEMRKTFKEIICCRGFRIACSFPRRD
T2 sequence (P41145 whole entry): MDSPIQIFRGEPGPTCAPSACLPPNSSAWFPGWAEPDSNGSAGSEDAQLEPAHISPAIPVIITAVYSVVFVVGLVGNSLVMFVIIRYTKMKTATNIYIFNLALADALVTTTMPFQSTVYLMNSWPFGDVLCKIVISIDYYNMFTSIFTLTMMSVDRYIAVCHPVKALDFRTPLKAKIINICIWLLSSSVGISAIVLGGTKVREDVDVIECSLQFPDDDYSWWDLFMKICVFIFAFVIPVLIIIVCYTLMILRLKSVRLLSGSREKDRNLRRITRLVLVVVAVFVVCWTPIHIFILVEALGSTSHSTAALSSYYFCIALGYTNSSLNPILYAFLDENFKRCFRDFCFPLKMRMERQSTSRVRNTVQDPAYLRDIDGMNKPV
T10 sequence (P41146 whole entry): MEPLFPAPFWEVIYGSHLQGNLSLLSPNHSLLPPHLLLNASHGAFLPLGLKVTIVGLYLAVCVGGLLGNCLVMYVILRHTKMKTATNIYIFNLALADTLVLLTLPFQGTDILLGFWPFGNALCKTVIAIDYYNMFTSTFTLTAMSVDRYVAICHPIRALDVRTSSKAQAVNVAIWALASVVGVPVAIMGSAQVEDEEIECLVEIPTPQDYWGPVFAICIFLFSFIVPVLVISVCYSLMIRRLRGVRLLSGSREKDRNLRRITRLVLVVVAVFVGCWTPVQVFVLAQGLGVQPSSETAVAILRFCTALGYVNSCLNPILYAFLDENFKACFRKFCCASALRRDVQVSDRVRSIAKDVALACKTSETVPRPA
T1 sequence (P41143 whole entry): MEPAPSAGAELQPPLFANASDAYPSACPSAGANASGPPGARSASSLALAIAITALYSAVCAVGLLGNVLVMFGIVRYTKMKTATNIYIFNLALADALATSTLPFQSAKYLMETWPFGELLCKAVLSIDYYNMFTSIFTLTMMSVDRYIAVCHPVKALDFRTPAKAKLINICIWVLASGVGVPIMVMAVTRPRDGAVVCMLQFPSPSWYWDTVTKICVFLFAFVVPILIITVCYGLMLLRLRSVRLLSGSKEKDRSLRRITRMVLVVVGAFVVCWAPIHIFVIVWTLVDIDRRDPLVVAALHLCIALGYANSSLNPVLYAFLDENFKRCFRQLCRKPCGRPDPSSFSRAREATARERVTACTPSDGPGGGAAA
T8 sequence (P25103 whole entry): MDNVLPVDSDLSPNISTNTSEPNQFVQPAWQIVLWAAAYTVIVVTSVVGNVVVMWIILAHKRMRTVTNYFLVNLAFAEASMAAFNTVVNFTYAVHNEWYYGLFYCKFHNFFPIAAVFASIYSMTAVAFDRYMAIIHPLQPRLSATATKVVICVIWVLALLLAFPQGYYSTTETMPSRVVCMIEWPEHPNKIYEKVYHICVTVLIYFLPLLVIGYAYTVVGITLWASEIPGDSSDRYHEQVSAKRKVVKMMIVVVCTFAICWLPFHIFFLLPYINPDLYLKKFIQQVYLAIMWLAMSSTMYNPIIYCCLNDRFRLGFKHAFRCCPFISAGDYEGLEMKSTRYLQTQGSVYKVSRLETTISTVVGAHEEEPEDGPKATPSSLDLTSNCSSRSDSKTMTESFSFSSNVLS
T3 sequence (P41968 whole entry): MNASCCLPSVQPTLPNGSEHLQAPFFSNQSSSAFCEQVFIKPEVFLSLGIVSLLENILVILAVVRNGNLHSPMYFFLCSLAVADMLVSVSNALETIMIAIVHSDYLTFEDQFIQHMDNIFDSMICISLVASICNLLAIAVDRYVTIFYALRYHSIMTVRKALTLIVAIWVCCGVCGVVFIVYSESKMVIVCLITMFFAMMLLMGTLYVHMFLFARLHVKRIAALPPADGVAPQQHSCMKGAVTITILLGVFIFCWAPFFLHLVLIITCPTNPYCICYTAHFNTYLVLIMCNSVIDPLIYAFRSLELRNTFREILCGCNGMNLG

Structure (SMILES): CO[C@H]1[C@H](O)[C@@H](COCc2ccc(Cl)cc2)OC(OCc2cccc(O)c2)[C@@H]1NC(=O)CCCN (stereo partly shown) [compound 169]
- A1 radioligand binding, percentage inhibition (Human δ-opioid (DOP); [3H]-Bremazocine): − (“−” indicates less than 50% inhibition at 10 μM)
- A2 radioligand binding, percentage inhibition (Human κ-Opioid (KOP); [3H]-Diprenorphine): − (“−” indicates less than 50% inhibition at 10 μM)
- A3 radioligand binding, percentage inhibition (Human Melanocortin (MC3); [125I]-NDP-αMSH): − (“−” indicates less than 50% inhibition at 10 μM)
- A4 radioligand binding, percentage inhibition (Human Melanocortin (MC4); [125I]-NDP-αMSH): − (“−” indicates less than 50% inhibition at 10 μM)
- A5 radioligand binding, percentage inhibition (Human melanocortin (MC5); [125I]-NDP-αMSH): − (“−” indicates less than 50% inhibition at 10 μM)
- A6 radioligand binding, percentage inhibition ([1]; [125I]-S36057): − (“−” indicates less than 50% inhibition at 10 μM)
- A7 radioligand binding, percentage inhibition (Human μ-opioid (MOP); [3H]-Naloxone): − (“−” indicates less than 50% inhibition at 10 μM)
- A8 radioligand binding, percentage inhibition (Human neurokinin (NK1); [125I]-Substance P): + (“+” indicates greater than 50% inhibition at 10 μM)
- A9 radioligand binding, percentage inhibition ([2]; [125I]-PYY): − (“−” indicates less than 50% inhibition at 10 μM)
- A10 radioligand binding, percentage inhibition (Human opioid (ORL1); [125I]-Nociceptin): − (“−” indicates less than 50% inhibition at 10 μM)
- A11 radioligand binding, percentage inhibition (Mouse urotensin (mUR2); [125I]-Urotensin II): − (“−” indicates less than 50% inhibition at 10 μM)

Structure (SMILES): COC[C@H]1OC(OCc2cccc(O)c2)[C@H](NC(=O)CCCNC(=N)N)[C@@H](OCc2ccc(-c3ccccc3)cc2)[C@@H]1O (stereo partly shown) [compound 144]
- A1 radioligand binding, percentage inhibition (Human δ-opioid (DOP); [3H]-Bremazocine): − (“−” indicates less than 50% inhibition at 10 μM)
- A2 radioligand binding, percentage inhibition (Human κ-Opioid (KOP); [3H]-Diprenorphine): − (“−” indicates less than 50% inhibition at 10 μM)
- A3 radioligand binding, percentage inhibition (Human Melanocortin (MC3); [125I]-NDP-αMSH): − (“−” indicates less than 50% inhibition at 10 μM)
- A4 radioligand binding, percentage inhibition (Human Melanocortin (MC4); [125I]-NDP-αMSH): − (“−” indicates less than 50% inhibition at 10 μM)
- A5 radioligand binding, percentage inhibition (Human melanocortin (MC5); [125I]-NDP-αMSH): + (“+” indicates greater than 50% inhibition at 10 μM)
- A6 radioligand binding, percentage inhibition ([1]; [125I]-S36057): + (“+” indicates greater than 50% inhibition at 10 μM)
- A7 radioligand binding, percentage inhibition (Human μ-opioid (MOP); [3H]-Naloxone): + (“+” indicates greater than 50% inhibition at 10 μM)
- A8 radioligand binding, percentage inhibition (Human neurokinin (NK1); [125I]-Substance P): + (“+” indicates greater than 50% inhibition at 10 μM)
- A9 radioligand binding, percentage inhibition ([2]; [125I]-PYY): − (“−” indicates less than 50% inhibition at 10 μM)
- A10 radioligand binding, percentage inhibition (Human opioid (ORL1); [125I]-Nociceptin): − (“−” indicates less than 50% inhibition at 10 μM)
- A11 radioligand binding, percentage inhibition (Mouse urotensin (mUR2); [125I]-Urotensin II): − (“−” indicates less than 50% inhibition at 10 μM)

Structure (SMILES): COCC1OC(OCc2ccc3ccccc3c2)C(NC(=O)CCNC(=N)N)C(OCc2ccc(Cl)cc2)C1O (stereo not shown) [compound 238]
- A1: inhibition of radioligand binding (Human δ-opioid (DOP); [3H]-Bremazocine, FlashPlate): + (“+” indicates greater than 50% inhibition at 10 μM)
- A2: inhibition of radioligand binding (Human κ-Opioid (KOP); [3H]-Diprenorphine, filtration): − (“−” indicates less than 50% inhibition at 10 μM)
- A3: inhibition of radioligand binding (Human Melanocortin (MC3); [125I]-NDP-αMSH, FlashPlate): + (“+” indicates greater than 50% inhibition at 10 μM)
- A4: inhibition of radioligand binding (Human Melanocortin (MC4); [125I]-NDP-αMSH, FlashPlate): + (“+” indicates greater than 50% inhibition at 10 μM)
- A5: inhibition of radioligand binding (Human melanocortin (MC5); [125I]-NDP-αMSH, FlashPlate): + (“+” indicates greater than 50% inhibition at 10 μM)
- A6: inhibition of radioligand binding ([1]; [125I]-S36057, FlashPlate): + (“+” indicates greater than 50% inhibition at 10 μM)
- A7: inhibition of radioligand binding (Human μ-opioid (MOP); [3H]-Naloxone, FlashPlate): − (“−” indicates less than 50% inhibition at 10 μM)
- A8: inhibition of radioligand binding (Human neurokinin (NK1); [125I]-Substance P, filtration): + (“+” indicates greater than 50% inhibition at 10 μM)
- A9: inhibition of radioligand binding ([2]; [125I]-PYY, FlashPlate): − (“−” indicates less than 50% inhibition at 10 μM)
- A10: inhibition of radioligand binding (Human opioid (ORL1); [125I]-Nociceptin, FlashPlate): + (“+” indicates greater than 50% inhibition at 10 μM)
- A11: inhibition of radioligand binding (Mouse urotensin (mUR2); [125I]-Urotensin II, FlashPlate): − (“−” indicates less than 50% inhibition at 10 μM)

Structure (SMILES): O=C(N[C@H]1C(NC(=O)C2CCNCC2)O[C@H](CO)[C@@H](O)[C@@H]1OCc1cccc2ccccc12)c1ccccc1 (stereo partly shown) [compound 363]
- A1: inhibition of radioligand binding, human δ-opioid (DOP) (Human δ-opioid (DOP); [3H]-Bremazocine): − (“−” indicates less than 50% inhibition at 10 μM)
- A2: inhibition of radioligand binding, human κ-opioid (KOP) (Human κ-Opioid (KOP); [3H]-Diprenorphine): − (“−” indicates less than 50% inhibition at 10 μM)
- A3: inhibition of radioligand binding, human melanocortin (MC3) (Human Melanocortin (MC3); [125I]-NDP-αMSH): − (“−” indicates less than 50% inhibition at 10 μM)
- A4: inhibition of radioligand binding, human melanocortin (MC4) (Human Melanocortin (MC4); [125I]-NDP-αMSH): − (“−” indicates less than 50% inhibition at 10 μM)
- A5: inhibition of radioligand binding, human melanocortin (MC5) (Human melanocortin (MC5); [125I]-NDP-αMSH): − (“−” indicates less than 50% inhibition at 10 μM)
- A6: inhibition of radioligand binding, human melanin-concentrating hormone (MCH1) ([1]; [125I]-S36057): − (“−” indicates less than 50% inhibition at 10 μM)
- A7: inhibition of radioligand binding, human μ-opioid (MOP) (Human μ-opioid (MOP); [3H]-Naloxone): − (“−” indicates less than 50% inhibition at 10 μM)
- A8: inhibition of radioligand binding, human neurokinin (NK1) (Human neurokinin (NK1); [125I]-Substance P): + (“+” indicates greater than 50% inhibition at 10 μM)
- A9: inhibition of radioligand binding, human neuropeptide Y (NPY-Y1) ([2]; [125I]-PYY): − (“−” indicates less than 50% inhibition at 10 μM)
- A10: inhibition of radioligand binding, human opioid (ORL1) (Human opioid (ORL1); [125I]-Nociceptin): − (“−” indicates less than 50% inhibition at 10 μM)
- A11: inhibition of radioligand binding, mouse urotensin (mUR2) (Mouse urotensin (mUR2); [125I]-Urotensin II): − (“−” indicates less than 50% inhibition at 10 μM)

Structure (SMILES): CO[C@H]1[C@H](O)[C@@H](COCc2ccc3ccccc3c2)OC(OCc2ccc3ccccc3c2)[C@@H]1NC(=O)CCCN (stereo partly shown) [compound 72]
- A1 radioligand binding inhibition (Human δ-opioid (DOP); human δ-opioid (DOP) membranes): − (“−” indicates less than 50% inhibition at 10 μM)
- A2 radioligand binding inhibition (Human κ-Opioid (KOP); human κ-opioid (KOP) membranes): − (“−” indicates less than 50% inhibition at 10 μM)
- A3 radioligand binding inhibition (Human Melanocortin (MC3); human melanocortin MC3 membranes): − (“−” indicates less than 50% inhibition at 10 μM)
- A4 radioligand binding inhibition (Human Melanocortin (MC4); human melanocortin MC4 membranes): + (“+” indicates greater than 50% inhibition at 10 μM)
- A5 radioligand binding inhibition (Human melanocortin (MC5); human melanocortin MC5 membranes): + (“+” indicates greater than 50% inhibition at 10 μM)
- A6 radioligand binding inhibition ([1]; human MCH1 membranes): − (“−” indicates less than 50% inhibition at 10 μM)
- A7 radioligand binding inhibition (Human μ-opioid (MOP); human μ-opioid (MOP) membranes): − (“−” indicates less than 50% inhibition at 10 μM)
- A8 radioligand binding inhibition (Human neurokinin (NK1); human neurokinin NK1 membranes): + (“+” indicates greater than 50% inhibition at 10 μM)
- A9 radioligand binding inhibition ([2]; human NPY-Y1 membranes): − (“−” indicates less than 50% inhibition at 10 μM)
- A10 radioligand binding inhibition (Human opioid (ORL1); human ORL1 membranes): − (“−” indicates less than 50% inhibition at 10 μM)
- A11 radioligand binding inhibition (Mouse urotensin (mUR2); mouse urotensin mUR2 membranes): − (“−” indicates less than 50% inhibition at 10 μM)
